Experimental data reported in PubChem BioAssay (NCI).
Where “and” joins values, the source holds several entries; their conditions need not be identical. Identical values can stand only once.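 Assay format: 96-well plates, 48-hour exposure. GI50 = concentration required for 50% inhibition of growth. TGI: concentration producing complete growth inhibition.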

Legend:
Assay in all cases: NCI-60 cell line screen, 48 h
OVCAR-8 ovarian = test system: OVCAR-8 ovarian
RPMI-8226 leukemia = test system: RPMI-8226 leukemia
COLO 205 colon = test system: COLO 205 colon
CCRF-CEM leukemia = test system: CCRF-CEM leukemia
HCT-15 colon = test system: HCT-15 colon
HS 578T breast = test system: HS 578T breast
TK-10 renal = test system: TK-10 renal
DU-145 prostate = test system: DU-145 prostate
SNB-19 CNS = test system: SNB-19 CNS
T-47D breast = test system: T-47D breast

SMILES	TGI (OVCAR-8 ovarian) [µM]	TGI (RPMI-8226 leukemia)	TGI (COLO 205 colon) [µM]	TGI (CCRF-CEM leukemia) [µM]	TGI (HCT-15 colon)	TGI (HS 578T breast) [µM]	TGI (TK-10 renal)	TGI (DU-145 prostate)	TGI (SNB-19 CNS)	TGI (T-47D breast) [µM]	GI50 (RPMI-8226 leukemia)	GI50 (COLO 205 colon)	GI50 (HS 578T breast) [µM]	GI50 (SNB-19 CNS)	GI50 (OVCAR-8 ovarian) [µM]	GI50 (HCT-15 colon) [µM]	GI50 (TK-10 renal) [µM]	GI50 (DU-145 prostate) [µM]	GI50 (T-47D breast) [µM]	GI50 (CCRF-CEM leukemia) [µM]
NC1=NCC(CN2CCCC2)O1 (stereo not given)	> 100	> 100 µM	> 100	> 100	> 100 µM	> 100	> 100 µM	> 100 µM	> 100 µM	> 100										
O=C1C=CC(=O)c2c(O)c(N3CCN(CCOCCO)CC3)c(Cl)c(O)c21		1.01 µM [middle of 4 runs]			817 nM [middle of 4 runs]		1.56 µM [middle of 4 runs]	3.31 µM [middle of 4 runs]	26.5 µM and 18.4 µM and 26.1 µM		277 nM [middle of 4 runs]	156 nM [middle of 4 runs]	0.218	13.4 µM [middle of 4 runs]						
Cc1ccccc1OC(C)C(=O)NN1C(=O)CC(=O)N(c2ccccc2)C1=S (stereo not given)	> 100	> 100 µM	> 100		> 100 µM	> 100	> 100 µM	> 100 µM	> 100 µM	> 100										
CO[C@H]1C[C@H](O[C@H]2CC[C@]3(C=O)[C@H]4CC[C@]5(C)[C@@H](C6=CC(=O)OC6)CC[C@]5(O)[C@@H]4CC[C@]3(O)C2)O[C@H](C)[C@H]1O	1.03	6.6 µM	1.83	> 100	0.732 µM	> 31.6	0.758 µM	0.462 µM	4.8 µM	5.31										
COC(=O)C1=C(O)C(C(=O)OC)[C@]2(O)[C@H](C(=O)OC)[C@H]1C[C@@H](c1ccc([N+](=O)[O-])cc1)[C@H]2C(=O)OC (stereo not given in full)	41.4		65.2	67	38.6 µM		> 100 µM	> 100 µM	65.5 µM	> 100										
Cc1csc(NC(=NCCN2CCOCC2)Nc2nc(C)cs2)n1	> 100	> 100 µM	> 100	> 100	> 100 µM				> 100 µM											
NCCC1CN(C(=O)OCc2ccccc2)c2ccccc21 (stereo not given)	20.3	46.6 µM	31.5		14.5 µM	56.8	> 54.8 µM	48.9 µM	> 51.3 µM	28										
O=C(NNCc1ccc(Cl)cc1)Nc1cccc2ccccc12	> 100	84.4 µM	> 100	> 100	> 100 µM		> 100 µM	> 100 µM	> 100 µM	> 100										
COC(=O)c1c(-c2ccc(Cl)cc2)cc2c3ccccc3n(C)c2c1C(=O)OC	> 100		> 100	> 100	> 100 µM	> 100	> 100 µM	> 100 µM	> 100 µM											
COc1ccccc1CNCCCCCCCCCCCCN1C(=O)c2ccc3c4c(ccc(c24)C1=O)C(=O)N(CCCCCCCCCCCCNCc1ccccc1OC)C3=O	1.94		> 50		> 50 µM		1.47 µM	> 50 µM	> 50 µM	> 50		> 50 µM		> 50 µM	0.908	> 50	0.795	2.91	> 50	
Cn1c2ccccc2n2c3ncccc3c(=S)c(C#N)c12	> 100	> 100 µM	> 100	> 100	> 100 µM	> 100		> 100 µM	> 100 µM	> 100										
O=C1c2ccccc2C(=O)N1c1nc(-c2ccc(Cl)cc2)cc(N2N=C(c3ccc(Br)cc3)CC2c2ccccc2)n1 (stereo not given)	> 24.1	11.7 µM	4.84	> 29.6	7.14 µM	20.8	> 49 µM	> 23.3 µM	> 33.8 µM	5.26										
CCOC(=O)c1cnccc1CC1(C#N)c2ccccc2C=CN1C(=O)c1ccccc1 (stereo not given)	37.2	27.6 µM	> 100	> 100	> 100 µM	46.4	> 100 µM	> 100 µM	> 100 µM	> 100										
CCN(CC)c1nc(N(C)C)c2ccccc2n1	> 100	40.6 µM	83.3		> 100 µM	> 100	> 100 µM		> 100 µM	> 100										
O=C1CC(n2cccc2)c2c(Br)sc(Br)c21 (stereo not given)	37.8	27.4 µM	30.7	26.8	30.7 µM	> 72.3	45.4 µM	31.8 µM	28.1 µM	46.3										
Cc1cc2cc3c(cc2c(-c2ccc(N)cc2)n1)OCO3	> 100	73.7 µM	88.5	> 100	> 100 µM	> 100	> 100 µM	> 100 µM	> 100 µM	> 100										
NS(=O)(=O)c1ccc(NNc2c3ccccc3nc3c(C(=O)Nc4ccc(S(=O)(=O)Nc5ncccn5)cc4)cccc23)cc1	> 25	> 25 µM	> 25	> 25	> 25 µM	> 25	> 25 µM	> 25 µM	> 25 µM	> 25										
Cc1nc2ccc(Cl)cc2c2c1CCN2c1ccccc1	29.1	31.4 µM	18.1	23.1	95.3 µM	55.7	37.7 µM	63.8 µM	78.5 µM	36.3										
CCCNc1ncnc2[nH]ncc12	> 100	> 100 µM	> 100	> 100	> 100 µM	> 100	> 100 µM	> 100 µM	> 100 µM	> 100										
O=c1cc(NCc2ccncc2)[nH]c(=O)[nH]1	> 100	> 100 µM	> 100	> 100	> 100 µM	> 100	> 100 µM		> 100 µM	> 100										
C=C(C)[C@@H]1CC[C@]2(C(=O)O)CC[C@]3(C)[C@H](CCC4[C@@]5(C)CC[C@H](C(=O)/C=C/c6ccc(O)c(O)c6)C(C)(C)[C@@H]5CC[C@]43C)[C@@H]12 (stereo not given in full)	54.5		13.8	> 100	26.8 µM	46.2	39.9 µM	28.1 µM	> 100 µM	95.7										
CCOC(=O)C1CCCCN1CCc1c[nH]c2ccccc12 (stereo not given)	> 100	> 100 µM	> 100	> 100	> 100 µM	> 100	> 100 µM	> 100 µM	> 100 µM	97.1										
CC1(C2CCC3(C)OC3C2)CO1 (stereo not given)	> 100	> 100 µM	> 100	> 100			> 100 µM		> 100 µM											

SMILES	TGI (OVCAR-8 ovarian) [µM]	TGI (RPMI-8226 leukemia)	TGI (COLO 205 colon) [µM]	TGI (CCRF-CEM leukemia) [µM]	TGI (HCT-15 colon)	TGI (HS 578T breast) [µM]	TGI (TK-10 renal)	TGI (DU-145 prostate)	TGI (SNB-19 CNS)	TGI (T-47D breast) [µM]	GI50 (RPMI-8226 leukemia)	GI50 (COLO 205 colon)	GI50 (HS 578T breast) [µM]	GI50 (SNB-19 CNS)	GI50 (OVCAR-8 ovarian) [µM]	GI50 (HCT-15 colon) [µM]	GI50 (TK-10 renal) [µM]	GI50 (DU-145 prostate) [µM]	GI50 (T-47D breast) [µM]	GI50 (CCRF-CEM leukemia) [µM]
COc1c(C)c(C/C=C(\C)CC/C=C(\C)CCC=C(C)C)c(OC)c(OC)c1OC	> 100		> 100	> 100	> 100 µM	> 100	> 100 µM	> 100 µM	> 100 µM											
CO[C@]1(CN2CCN3CCCC[C@@H]3C2)/C=C/C[C@H](C)[C@@H](C)S(=O)(=O)NC(=O)c2ccc3c(c2)N(C[C@@H]2CC[C@H]21)C[C@@]1(CCCc2cc(Cl)ccc21)CO3		41.8 µM		13.3		3.57	6.39 µM	6.54 µM	4.62 µM	5.11	0.0185 µM		1.18	2.02 µM			2.33	2.4	1.87	1.44
C/C(=N\Nc1nc2ccccc2[nH]1)c1cc2ccccc2cn1	1.24	0.599 µM		5.65	2.51 µM	1.74	5.16 µM	1.91 µM	1.64 µM	1.12										
CCOP(=O)(OCC)/C(C#N)=C/c1cccn1Cc1ccccc1	> 100		44.5	> 100	> 100 µM		> 100 µM	> 100 µM	> 100 µM	74										
C#CCC1(C(=O)OCC)C(=O)c2ccccc2N(C)C1=O (stereo not given)	> 100	> 100 µM	> 100	> 100	> 100 µM		> 100 µM		> 100 µM											
CC(C)OC1OC(CO)C(O)CC1n1cc(F)c(=O)[nH]c1=O (stereo not given)	> 100	> 100 µM	> 100		> 100 µM	> 100	> 100 µM	> 100 µM	> 100 µM	> 100										
S=C(NCc1ccccc1)N/N=C/c1ccccn1	> 76.2	2.33 µM	> 100		> 40.5 µM	> 100	> 100 µM	> 100 µM	> 100 µM	> 100										
Nc1nc(Cl)cc(NCC2(O)CCCC2)n1	> 100	> 100 µM	> 100	> 100	> 100 µM	> 100	> 100 µM	> 100 µM		> 100										
CC(C)(C)C1CC[C@H](O)[C@H]([C@H](O)CC2CC(=O)N(c3ccccc3)C(=O)C2)C1 (stereo not given in full)	> 100			> 100	> 100 µM	> 100	> 100 µM	> 100 µM	> 100 µM											
CC(=O)/C(=C\c1ccc(Cl)c(Cl)c1)C(=O)C(C)CN(C)C (stereo not given)	6.45	3.63 µM	24.4	0.116	10.1 µM		5.82 µM	17.3 µM	5.56 µM	12.3										
CC(C)(C)OC(=O)n1cc(C2CN(O)C(=O)C23CCC(=O)N3Cc2ccccc2)c2ccccc21 (stereo not given)		93.5 µM	> 100	> 100		> 100	> 100 µM	> 100 µM	> 100 µM	> 100										
CC(=O)Nc1cc(Nc2cc(=O)[nH]c(=O)[nH]2)ccc1C	> 100	> 100 µM	> 100	> 100	> 100 µM	> 100	> 100 µM	> 100 µM	> 100 µM											
CC(=O)O[C@H]1CC[C@@]2(C)[C@H](CC[C@@H]3[C@@H]2CC[C@]2(C)[C@@H](c4ccc(=O)oc4)C[C@H]4O[C@]342)C1	4.1	5.1 µM	14.2	1.52	29.5 µM				9.36 µM											
O=C(CC1Sc2ccccc2NC1=O)Nc1ccc(Cl)cc1 (stereo not given)	> 100	> 100 µM	> 100	> 100	> 100 µM		> 100 µM		> 100 µM											
O=[N+]([O-])c1cccnc1-n1cnc2ccccc21	> 100	> 100 µM	> 100	> 100	> 100 µM	> 100	> 100 µM	> 100 µM		> 100										
O=C(c1ccco1)N(C(=S)OC12CC3CC(CC(C3)C1)C2)c1ccccc1	> 100		32.4	59.5	> 100 µM	98	> 100 µM	> 100 µM	> 100 µM	> 100										
CC1CC/C(=C\c2ccc(Cl)cc2)c2nc(N)c(C#N)c(-c3ccc(Cl)cc3)c21 (stereo not given)	> 100	> 100 µM	> 100	> 100	> 100 µM		> 100 µM		69.5 µM	> 100										
CC(=O)CC(=O)CCC(=O)O	> 100		> 100		> 100 µM		> 100 µM		> 100 µM											
CCOC(=O)c1cn(C)c(=S)n2c1nc1ccccc12	> 100	95.6 µM	> 100	> 100	> 100 µM			> 100 µM	> 100 µM	> 100										
CS(=O)(=O)NC12CCC(c3ccccc31)c1ccccc12		> 100 µM	> 100	> 100	> 100 µM	> 100	> 100 µM	> 100 µM	> 100 µM	> 100										
C=CC1CN2CCC1CC2C(O)c1ccnc2ccccc12 (stereo not given)	> 100		> 100	> 100	> 100 µM		> 100 µM	> 100 µM	> 100 µM	> 100										> 100
O=C1C=CC(=O)c2c(Cl)ccc(O)c21	50.2	23.4 µM	25.8	> 100	39.1 µM				> 100 µM											
